{"source": "patent US5622933A", "about": "“Multiple branch peptide constructions for use against HIV” (priority 1993, dated 1997)", "key": {"HIV [1]": {"tested_on": "HIV", "assay": "Infection of HT-29 human colon cells through the GalCer receptor", "assay_type": "cell-based", "method": "The activity of MBPCs was evaluated on this alternative infection route as follows: HT-29 cells (5×10^5 cells) were incubated with MBPCs (5×10^-6 M) for 45 minutes and subsequently exposed to 100 TCID50 of HIV-1 (LAI), HIV-1 (NDK) or HIV-2 (ROD) for 1 hour at 37° C. The residual inoculum was inactivated by three successive trypsinations and infection was assessed by: i) direct measurement of HIV-1 p24^gag (for HIV-1 isolates) and RT activity (for HIV-1 and HIV-2 isolates) in the culture supernatants; ii) co-cultivation with human PBLs. The cells were treated with the MBPCs as follows: 1- none; 2- [GPGRAF]8 -MLC; 3- [GPGRAF]8 -MLCD; 4- [GPG(R)DAF]8 -MLC; 5- [GPGRAF]16 -MLC; 6- [[…]]4 -MLC; and 7- [[…]]4 -MLC, with all amino acids in L form unless noted otherwise. The results shown in FIG. 5A, which correspond to infection with HIV-1 (NDK), are representative of three separate experiments and the MBPC used is indicated by the number on the x-axis. The concentration of p24^gag (pg/ml) was measured during the co-culture experiment with PBLs (+++, >10 ng/ml 10 days post-infection; ++, >1 ng/ml 13 days post-infection; +, >1 ng/ml 16 days post-infection; -, no detectable p24^gag 1 month post-infection). Similar results were obtained with HIV-1 (LAI) and HIV-2 (ROD)."}, "HIV [2]": {"tested_on": "HIV", "assay": "Inhibition of syncytia formation induced by HIV (summary statements)", "assay_type": "cell-based", "method": "CEM or C8166 cells were chronically infected with HIV-1 Lai or HIV-2 Rod, or HIV-1MN, respectively. Infected cells (1×10^4) were incubated for 2 hours with various concentrations of MBPCs in 96-well plates. Uninfected Molt-4 cells (4×10^4) were then added in […]. Syncytia were counted after 18 hours at 37° C."}, "GalCer receptor": {"tested_on": "GalCer receptor", "assay": "Binding of gp120 to GalCer (HPTLC binding assay)", "method": "In another experiment with the same MBPCs, the effect of MBPCs on the binding of gp120 to GalCer was analyzed using a high performance thin layer chromatography (HPTLC) binding assay. MBPCs (10^-4 M) were preincubated with GalCer for 1 hour at room temperature. After thorough washing, the HPTLC plates were incubated with HIV-1 recombinant gp120 (2.5 ug/ml) followed by rabbit anti-gp120 and ^125 I-goat anti-rabbit IgG. The plates were washed in PBS and exposed to Amersham Hyperfilm MP for 8 hours. As shown in FIG. 5B treatment of HT-29 cells with active MBPCs protected the cells from infection by HIV-1 (NDK isolate). This antiviral effect was correlated with its ability to block the binding of gp120 to GalCer."}}, "data": [{"substance": "(GPGRAF)16 -(K)8 -(K)4 -(K)2 -K-βA-OH [MBPC.12]", "values": [{"measurement": "block of the infectivity of HIV on human colon cells", "setting": "HIV [1]", "result": "completely block"}, {"measurement": "MBPC concentration with which inhibiting effect on syncytia formation was observed in vitro", "setting": "HIV [2]", "result": "around 10^-6 M"}, {"measurement": "inhibiting effect on syncytia formation, in words", "setting": "HIV [2]", "result": "results similar to those of MBPC.3"}, {"measurement": "binding to / activity on the Galactosyl Ceramide receptor", "setting": "GalCer receptor", "result": "bind to the second receptor"}]}]}
